Reference: PMC3707847 (PLoS ONE, 2013)

Key:
[1] = target: T1, recombinant IAV polymerase complex (PA/PB1/PB2) (Influenza A virus, UniProt F6KI70); assay type: biochemical, H3N2 IAV strain (A/chicken/Nanchang/3-120/01); conditions: for Primer extension products opposite C on template: template t14-1, 100 µM nucleotide plus 25 µM CTP and UTP; for Kapp, single NMP incorporation opposite cytidine (N:C): template t14-1, position +10; for Discrimination (Kapp,NTP/Kapp,GTP), opposite cytidine: template t14-1, relative to natural GTP; for Primer extension products opposite U on template: template t14-2, 100 µM nucleotide; for Discrimination (Kapp,NTP/Kapp,ATP), opposite uridine: template t14-2, relative to natural ATP; for Primer extension products with multiple incorporation sites (UCC at +10 to +12): template t14-3, 100 µM nucleotide
[2] = target: T1, recombinant IAV polymerase complex (PA/PB1/PB2); assay type: biochemical, H3N2 IAV strain (A/chicken/Nanchang/3-120/01); conditions: T-705 RTP at 100 µM; for Effect of increasing natural GTP to 300 µM on inhibition of polymerase activity: GTP 300 µM vs low, 3′dGTP data not shown
[3] = system: influenza virus RNP complex (RdRp activity); assay type: biochemical, Influenza virus (A/WSN/33 (H1N1))

SMILES	Primer extension products opposite C on template [1]	Kapp, single NMP incorporation opposite cytidine (N:C) [1]	Discrimination (Kapp,NTP/Kapp,GTP), opposite cytidine [1]	Primer extension products opposite U on template [1]	Kapp, single NMP incorporation opposite uridine (N:U) ([1]; template t14-2, position +10) [µM]	Discrimination (Kapp,NTP/Kapp,ATP), opposite uridine [1] [fold]	Primer extension products with multiple incorporation sites (UCC at +10 to +12) [1]	Effect of increasing natural GTP to 300 µM on inhibition of polymerase activity [2]	Inhibition of radiolabeled viral RNA synthesis by RNP complex [3]	further results
Nc1ncnc2c1ncn2[C@@H]1O[C@H](COP(=O)(O)OP(=O)(O)OP(=O)(O)O)C[C@H]1O [3′dATP]	–	–	–	–	–	–	–	–	–	Incorporation by IAVpol in single nucleotide incorporation assay ([1]; data not shown): not significantly incorporated by IAVpol
Nc1ncnc2c1ncn2[C@@H]1O[C@H](COP(=O)(O)OP(=O)(O)OP(=O)(O)O)[C@@H](O)[C@H]1O [ATP]	mis-incorporation was slightly increased	2,560±720 µM	330,000 fold	converted to 14-mer full length product	0.022 ± 0.003	1	most of the 9-mer was converted to 10-mer	–	–	Error rate of RNA synthesis by IAV polymerase, A:C mismatch ([1]; ATP opposite cytidine, calculated from Kapp): 3.1×10^−6; Kapp for ATP opposite uridine as printed in text ([1]; template t14-2, position +10): 0.022 ± 0.003 µM⁻¹; Kapp for ATP incorporation, t14-3 template ([1]; template t14-3, 9-mer to +10 position): 0.038 µM
NC(=O)c1nc(F)cn([C@@H]2O[C@H](COP(=O)(O)OP(=O)(O)OP(=O)(O)O)[C@@H](O)[C@H]2O)c1=O [T-705 RTP, T-705 ribofuranosyl 5′-triphosphate]	conversion of the 9-mer to 14-mer, with an additional 10-mer product	–	–	conversion of the 9-mer to 10- and 14-mer products	–	–	complete inhibition of further nucleotide incorporation	almost completely prevented the inhibition of polymerase activity	inhibited the RdRp activity of influenza virus vRNPs	Effect of increasing natural ATP to 300 µM on inhibition ([2]; ATP 300 µM vs 3 µM): same loss of inhibition effect; Effect of CTP and UTP at varying concentrations on inhibition potency ([2]; CTP or UTP 3 or 300 µM): did not change the inhibition potency; Potency relative to 3′dGTP against RNP complex [3]: significantly more potent than 3′dGTP
Nc1nc2c(ncn2[C@@H]2O[C@H](COP(=O)(O)OP(=O)(O)OP(=O)(O)O)[C@@H](O)[C@H]2O)c(=O)[nH]1 [GTP]	converted to the 14-mer full length extension product	0.0078 ± 0.003 µM	1 fold	robust 14-mer RNA product	9.2 ± 0.54	420	–	–	–	Error rate of RNA synthesis by IAV polymerase, G:U mismatch ([1]; GTP opposite uridine, calculated from Kapp): 2.4×10^−3
Nc1nc2c(ncn2[C@@H]2O[C@H](COP(=O)(O)OP(=O)(O)OP(=O)(O)O)C[C@H]2O)c(=O)[nH]1 [3′dGTP, 3′-deoxy GTP]	produced only a 10-mer chain termination product	–	–	–	–	–	–	almost completely prevented the inhibition of polymerase activity	progressive inhibition of radio-labeled RNA synthesis	–
